Laboratory results published in patent US20240383908A1, “SYNTHESIS AND APPLICATION OF PHOSPHATASE DEGRADER” (HINOVA PHARMACEUTICALS INC., priority 2021, published 2024).
pIC50: −log10 of the molar value.

System: KYSE 520
Experiment: Inhibition of cell proliferation, KYSE 520 (CCK-8)
Type: cell-based
Conditions: Homo sapiens, KYSE 520 cells, read-out: Inhibition activity on the proliferation of different cell lines KYSE 520 (IC50)
Description: (1) MV-411 cells were cultured in the cell culture medium, and then well-growing cells were selected and inoculated in a 96-well plate at 80 μL/well, with 2×10^4 cells/well. The plate was incubated overnight in a 5% CO2 cell incubator at 37° C.
(2) 10 mM storage solution of each drug was prepared using dimethylsulfoxide (DMSO). The stock solution was diluted in a ratio of 1:3 with DMSO before use, and then the solution was serially diluted in a ratio of 1:3, to obtain 9 gradient concentrations. Each concentration was further diluted with the medium in a ratio of 1:200 (to ensure that the DMSO concentration in the culture system was 0.1%). Two wells were set for each concentration. 20 μL of each compound solution was added to the cell culture well (with a final concentration of 10 μM, 3.3 μM, 1.1 μM . . . ). The plate was gently shaken and mixed. Additionally, 3 negative control wells (only containing cells) and 3 blank control wells (only containing the medium) were included (6 wells were each added with 20 μL of DMSO diluted with the medium in a ratio of 1:200).
(1) After 5 days of cultivation, 10 μL of CCK-8 was added to each well, and then the plate was further cultured for 3 h at 37° C. in a 5% CO2 cell incubator.
(2) The absorbance (OD value) was measured at 450 nm with a multifunctional microplate reader. (3) The data were analyzed using the Dose-response-inhibition equation in GraphPad Prism8 software to obtain the IC50 value.
Using a similar method, the IC50 value (nM) for the inhibitory activity of the compound according to the present invention against different cell lines was obtained, and the results are shown in Table 3 (++++: IC50>5 μM; +++: 1 μM<IC50<5 μM; ++: IC50<1 μM).

Cc1ncsc1-c1ccc([C@H](C)NC(=O)[C@@H]2C[C@@H](O)CN2C(=O)[C@@H](NC(=O)CCCCCCCCN2CCN(C(=O)CCC(=O)Nc3cccc(Sc4ncc(N5CCC(C)(N)CC5)nc4N)c3Cl)CC2)C(C)(C)C)cc1 [Compound 999]
pIC50: 5.30 to 6.00
